Measured values taken from publication PMC8942775, “Lipidated Calcitonin Gene-Related Peptide (CGRP) Peptide Antagonists Retain CGRP Receptor Activity and Attenuate CGRP Action In Vivo” (Frontiers in Pharmacology, 2022).

Assays:
mCGRP receptor = mCGRP receptor (Mus musculus, UniProt Q9R1W5+Q9WTJ5); assay: cell-based; conditions: SEM
Experimental: (§1) Cells were grown in a humidified incubator at 37°C and 5% CO2 and seeded into 96-well plates at a density of 20,000 cells/well. The following day, Cos-7 cells were transiently transfected using Polyethylenimine (PEI) using a 1:1 ratio of receptor:RAMP DNA.
(§2) Transfected Cos-7 cells were incubated with agonist in the presence or absence of antagonist at 37°C for 15 min. cAMP production was terminated by aspirating all the media in the wells, followed by the addition of 50 μl of ice-cold ethanol.
(§3) The Hill slope was constrained to one following agonist analyses. The Schild slope was also constrained to one. The pA2 and pKB values were obtained from the Schild analysis. For washout experiments, the same method of analysis was applied to the antagonists, but with minor revisions. The Schild analysis relied on the matched control agonist curves i.e. those derived from the same experimental conditions as the agonist + antagonist curves. Normalization was also specific to the matched control agonist curves.
(§4) Mean pEC50, pKB and pA2 values from at least three independent experiments before normalization were also presented as mean ± SEM. pEC50, pKB and pA2 values from independent experiments were grouped and compared by unpaired Student’s t-test or by one-way ANOVA. […]

mAMY1 receptor = molecular target: T1, mAMY1 receptor (Mus musculus, UniProt Q60755+Q9WTJ5); assay: cell-based; conditions: SEM
T1 sequence (Q60755 42-496 isoform Q60755-2 limits assumed): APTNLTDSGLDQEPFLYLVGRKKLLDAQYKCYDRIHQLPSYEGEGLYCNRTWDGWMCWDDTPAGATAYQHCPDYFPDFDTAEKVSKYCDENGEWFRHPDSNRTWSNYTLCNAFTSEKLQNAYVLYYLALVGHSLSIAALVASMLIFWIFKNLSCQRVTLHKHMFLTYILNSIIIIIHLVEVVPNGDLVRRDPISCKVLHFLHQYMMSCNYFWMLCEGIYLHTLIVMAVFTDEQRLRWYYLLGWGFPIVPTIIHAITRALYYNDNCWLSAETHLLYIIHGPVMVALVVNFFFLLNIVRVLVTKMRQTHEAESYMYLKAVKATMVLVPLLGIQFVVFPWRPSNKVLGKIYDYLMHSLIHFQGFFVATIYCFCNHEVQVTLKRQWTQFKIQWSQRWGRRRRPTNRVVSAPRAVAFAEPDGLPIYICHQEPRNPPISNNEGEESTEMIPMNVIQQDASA
T1 sequence (Q9WTJ5 27-148): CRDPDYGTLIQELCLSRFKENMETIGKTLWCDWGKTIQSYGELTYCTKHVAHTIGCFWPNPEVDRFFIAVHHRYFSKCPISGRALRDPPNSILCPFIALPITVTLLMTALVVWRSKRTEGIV
Experimental: as §1, §2, §3, §4

mCGRP receptor, sequence (Q9R1W5 23-463, one chain of several): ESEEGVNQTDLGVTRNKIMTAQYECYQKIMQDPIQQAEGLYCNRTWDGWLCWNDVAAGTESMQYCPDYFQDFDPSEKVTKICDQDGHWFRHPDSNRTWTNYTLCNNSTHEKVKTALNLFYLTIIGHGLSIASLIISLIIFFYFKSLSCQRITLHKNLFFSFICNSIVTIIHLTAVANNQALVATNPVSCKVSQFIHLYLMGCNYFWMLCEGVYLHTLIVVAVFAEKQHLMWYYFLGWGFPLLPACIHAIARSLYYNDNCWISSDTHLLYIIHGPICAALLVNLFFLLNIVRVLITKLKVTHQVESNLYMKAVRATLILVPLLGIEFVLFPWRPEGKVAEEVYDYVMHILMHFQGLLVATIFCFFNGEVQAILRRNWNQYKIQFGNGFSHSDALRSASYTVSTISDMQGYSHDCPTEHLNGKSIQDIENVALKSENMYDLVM

CC(C)C[C@H](NC(=O)CNC(=O)[C@H](C)NC(=O)[C@H](CC(C)C)NC(=O)[C@H](CCCNC(=N)N)NC(=O)[C@H](Cc1cnc[nH]1)NC(=O)[C@@H](NC(=O)[C@@H](N)C(C)C)[C@@H](C)O)C(=O)N[C@@H](CC(C)C)C(=O)N[C@@H](CO)C(=O)N[C@@H](CCCNC(=N)N)C(=O)N[C@@H](CO)C(=O)NCC(=O)NCC(=O)N[C@H](C(=O)N[C@H](C(=O)N[C@@H](CCCCN)C(=O)N[C@@H](CC(N)=O)C(=O)N[C@@H](CC(N)=O)C(=O)N[C@@H](Cc1ccccc1)C(=O)N[C@H](C(=O)N1CCC[C@H]1C(=O)N[C@H](C(=O)N[C@@H](CC(N)=O)C(=O)N[C@H](C(=O)NCC(=O)N[C@@H](CO)C(=O)N[C@@H](CCCCN)C(=O)N[C@@H](C)C(=O)N[C@@H](Cc1ccccc1)C(N)=O)C(C)C)[C@@H](C)O)C(C)C)C(C)C)C(C)C [αCGRP8-37]
Kb (mCGRP receptor): 1 nM | Kb (mAMY1 receptor): 24.5 nM
